Patent US8332028B2, “Protected lithium electrodes for electro-transport drug delivery” (PolyPlus Battery Company, priority 2006, dated 2012)

Assay: in vitro Li delivery through pig skin in a flow-through Li-AgCl cell (protected Li metal foil donor electrode)
Assay type: in vitro ADME
Experimental: The glass receptor compartment was similar to one described by Phipps et al. (1988) Solid State Ionics 28-30: 1778-1783, for ionophoretic drug delivery experiments. The receptor compartment was filled with RPMI-1640 Medium (Sigma Aldrich). The antibiotic gentamicin sulphate was added to the receptor compartment fluid to inhibit bacterial growth.
The prepared skin was stored in RPMI-1640 medium overnight before the start of the experiment. The skin was placed on the receptor chamber and kept in place and stretched out with an O-ring around the neck of the chamber. The visceral surface of the skin was in contact with the receptor fluid.
A square 1 cm×1 cm silver chloride cathode with a capacity of approximately 40 mAh was introduced into the receptor chamber through a port. A multi-channel peristaltic pump was used to create a flow of the RPMI-1640 medium through receptor compartments of several cells. In our experiments we used a flow rate of 2.1 mL/hr. Periodic sampling of the receptor compartment fluid was performed automatically. The temperature inside the water-jacketed receptor compartment was kept at 37° C. The fluid inside the receptor compartment was stirred with a magnetic stir bar.
The donor chamber was positioned over the skin. It contained Li metal foil and a protective architecture enabling the use of Li in an aqueous environment. The protective architecture comprised a 150 micron thick barrier layer composed of a glass ceramic solid electrolyte plate (AG-01 material from OHARA Corporation with ionic conductivity of ˜10^−4 S/cm) and an anolyte interlayer located between the Li surface and the glass ceramic plate barrier layer. […]
The donor-acceptor chamber assembly was kept in place using a clamp. […] Li content in the fluid samples taken from receptor compartment was analyzed by ICP-MS.
The rate of Li delivery into the receptor compartment was calculated as a product of Li concentration and the flow rate of the receptor fluid.

## [Li] [Li, lithium]
0.2 mA/cm^2 vs 0.1 mA/cm^2, FIG. 9
  Li content in receptor fluid samples, comparison of current densities: significantly larger for the rate of 0.2 mA/cm^2 than for 0.1 mA/cm^2
Before current passing
  initial Li content of the receptor solution: ≤ 6 µg/L
Constant current 0.1 mA/cm^2 (27 hrs) and 0.2 mA/cm^2 (24 hrs), 37° C., RPMI-1640 receptor fluid, ICP-MS, FIG. 9
  Li content in receptor fluid samples over time: gradually increased over time
